Measurements from ChEMBL document CHEMBL1131993, “Binding affinities of 3-(3-phenylisoxazol-5-yl)methylidene-1-azabicycles to acetylcholine receptors” (Bioorg Med Chem Lett, 1999).

Legend:
[1] = biological target: Muscarinic acetylcholine receptor M3 (Homo sapiens) (UniProt P20309); test: Ability to displace [3H]N-methylscopolamine binding to M3 human recombinant muscarinic receptor in CHO cells at concentration 10 uM; format: cell-based
[2] = biological target: T1, Muscarinic acetylcholine receptor M2 (Homo sapiens) (UniProt P08172); test: Ability to displace [3H]N-methylscopolamine binding to M2 human recombinant muscarinic receptor in CHO cells at concentration 10 uM; format: cell-based
T1 sequence (whole entry): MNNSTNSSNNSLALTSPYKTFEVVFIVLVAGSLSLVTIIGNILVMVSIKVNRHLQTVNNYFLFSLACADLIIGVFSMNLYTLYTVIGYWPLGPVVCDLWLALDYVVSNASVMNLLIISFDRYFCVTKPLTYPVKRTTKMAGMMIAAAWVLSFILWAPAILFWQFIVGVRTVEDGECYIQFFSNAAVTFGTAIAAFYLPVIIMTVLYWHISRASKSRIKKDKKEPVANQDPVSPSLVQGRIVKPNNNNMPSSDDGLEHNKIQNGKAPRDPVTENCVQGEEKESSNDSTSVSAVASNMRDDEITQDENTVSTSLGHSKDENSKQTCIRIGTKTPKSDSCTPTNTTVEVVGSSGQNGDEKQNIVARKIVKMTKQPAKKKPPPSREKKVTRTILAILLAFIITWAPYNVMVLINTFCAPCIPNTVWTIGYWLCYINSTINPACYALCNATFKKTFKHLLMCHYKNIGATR

[3] = biological target: T2, Neuronal acetylcholine receptor subunit alpha-7 (Rattus norvegicus, UniProt Q05941); test: The compound was tested for its binding affinity against nicotinic receptor in synaptic membrane fractions from rat cerebral cortices.; format: cell membranes
[4] = biological target: Neuronal acetylcholine receptor (Rattus norvegicus) (UniProt P04757+P09483+P12389+P12390+P12392+P43144+Q9JLB5+P12391+P43143+P20420+Q05941); test: Ability to displace [3H]cytisine binding to nicotinic receptor in synaptic membrane fractions from rat cerebral cortices at a concentration of 10 uM.; format: cell membranes
[5] = biological target: T1, Muscarinic acetylcholine receptor M2 (Homo sapiens); test: Ability to displace [3H]N-methylscopolamine binding to M2 human recombinant muscarinic receptor in CHO cells at concentration 1 uM; format: cell-based
[6] = biological target: Muscarinic acetylcholine receptor M3 (Homo sapiens) (UniProt P20309); test: Ability to displace [3H]N-methylscopolamine binding to M3 human recombinant muscarinic receptor in CHO cells at concentration 1 uM; format: cell-based
[7] = biological target: T3, Muscarinic acetylcholine receptor M1 (Homo sapiens) (UniProt P11229); test: Ability to displace [3H]N-methylscopolamine binding to M1 human recombinant muscarinic receptor in CHO cells at concentration 1 uM; format: cell-based
T3 sequence (whole entry): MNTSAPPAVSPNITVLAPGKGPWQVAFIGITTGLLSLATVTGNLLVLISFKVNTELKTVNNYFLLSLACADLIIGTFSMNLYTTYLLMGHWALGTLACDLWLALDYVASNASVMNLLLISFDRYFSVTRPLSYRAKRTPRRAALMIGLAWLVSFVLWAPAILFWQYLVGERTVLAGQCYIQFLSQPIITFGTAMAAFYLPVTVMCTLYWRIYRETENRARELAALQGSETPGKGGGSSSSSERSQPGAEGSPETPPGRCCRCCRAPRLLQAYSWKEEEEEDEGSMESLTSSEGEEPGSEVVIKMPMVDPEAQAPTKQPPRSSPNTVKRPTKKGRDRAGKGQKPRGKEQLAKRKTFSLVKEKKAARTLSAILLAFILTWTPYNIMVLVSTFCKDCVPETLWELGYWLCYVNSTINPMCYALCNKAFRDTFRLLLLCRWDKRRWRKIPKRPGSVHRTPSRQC

[8] = biological target: T3, Muscarinic acetylcholine receptor M1 (Homo sapiens); test: Ability to displace [3H]N-methylscopolamine binding to M1 human recombinant muscarinic receptor in CHO cells at concentration 10 uM; format: cell-based
[9] = biological target: T4, Acetylcholine receptor subunit delta (Torpedo californica) (UniProt P02718); test: Ability to displace [3H]cytisine binding to Nicotinic acetylcholine receptor in synaptic membrane fractions from rat cerebral cortices at a concentration of 10 uM.; format: cell membranes; details: target entry is the homologue from another species
T4 sequence (whole entry): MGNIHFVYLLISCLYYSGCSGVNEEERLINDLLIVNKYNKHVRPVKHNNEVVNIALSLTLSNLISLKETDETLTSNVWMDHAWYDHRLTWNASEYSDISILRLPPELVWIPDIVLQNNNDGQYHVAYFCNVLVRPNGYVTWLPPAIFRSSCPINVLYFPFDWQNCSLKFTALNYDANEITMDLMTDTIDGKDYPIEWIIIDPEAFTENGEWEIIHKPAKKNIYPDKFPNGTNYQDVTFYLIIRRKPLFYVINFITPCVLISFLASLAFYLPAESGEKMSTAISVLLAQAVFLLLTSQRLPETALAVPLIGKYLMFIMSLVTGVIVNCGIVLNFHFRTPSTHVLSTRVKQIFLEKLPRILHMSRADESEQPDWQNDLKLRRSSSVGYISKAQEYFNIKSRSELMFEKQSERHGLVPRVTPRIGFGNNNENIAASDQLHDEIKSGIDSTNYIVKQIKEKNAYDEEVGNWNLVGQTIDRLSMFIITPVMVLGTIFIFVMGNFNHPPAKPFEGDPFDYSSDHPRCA

[10] = biological target: Neuronal acetylcholine receptor; test: The compound was tested for its binding affinity against Nicotinic acetylcholine receptor in synaptic membrane fractions from rat cerebral cortices.; format: cell membranes
[11] = biological target: T2, Neuronal acetylcholine receptor subunit alpha-7; test: Compound was tested for its binding affinity against nicotinic receptor in synaptic membrane fractions from rat cerebral cortices.; format: cell membranes
[12] = biological target: T5, Muscarinic acetylcholine receptor M1 (Homo sapiens, UniProt P11229); test: Compound was tested for its binding affinity against M1 human recombinant muscarinic receptor in CHO cells.; format: cell-based
T5 sequence (P11229 whole entry): T3 sequence (whole entry)

T2 sequence (Q05941 whole entry): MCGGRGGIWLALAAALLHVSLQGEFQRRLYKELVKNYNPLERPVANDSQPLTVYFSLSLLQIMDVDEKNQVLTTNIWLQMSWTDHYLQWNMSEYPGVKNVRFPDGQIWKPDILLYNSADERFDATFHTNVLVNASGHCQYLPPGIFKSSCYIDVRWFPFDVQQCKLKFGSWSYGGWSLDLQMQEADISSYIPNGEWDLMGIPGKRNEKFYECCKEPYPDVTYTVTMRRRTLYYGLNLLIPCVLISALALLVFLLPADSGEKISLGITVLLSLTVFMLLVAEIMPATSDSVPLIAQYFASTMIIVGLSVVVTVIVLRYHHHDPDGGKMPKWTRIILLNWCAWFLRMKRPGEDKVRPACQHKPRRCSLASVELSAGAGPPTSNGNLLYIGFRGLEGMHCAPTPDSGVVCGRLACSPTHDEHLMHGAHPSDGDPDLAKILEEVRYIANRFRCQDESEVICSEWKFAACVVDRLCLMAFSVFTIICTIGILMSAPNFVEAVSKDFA
Sequence of Muscarinic acetylcholine receptor M3 (Homo sapiens) (P20309 whole entry, looked up): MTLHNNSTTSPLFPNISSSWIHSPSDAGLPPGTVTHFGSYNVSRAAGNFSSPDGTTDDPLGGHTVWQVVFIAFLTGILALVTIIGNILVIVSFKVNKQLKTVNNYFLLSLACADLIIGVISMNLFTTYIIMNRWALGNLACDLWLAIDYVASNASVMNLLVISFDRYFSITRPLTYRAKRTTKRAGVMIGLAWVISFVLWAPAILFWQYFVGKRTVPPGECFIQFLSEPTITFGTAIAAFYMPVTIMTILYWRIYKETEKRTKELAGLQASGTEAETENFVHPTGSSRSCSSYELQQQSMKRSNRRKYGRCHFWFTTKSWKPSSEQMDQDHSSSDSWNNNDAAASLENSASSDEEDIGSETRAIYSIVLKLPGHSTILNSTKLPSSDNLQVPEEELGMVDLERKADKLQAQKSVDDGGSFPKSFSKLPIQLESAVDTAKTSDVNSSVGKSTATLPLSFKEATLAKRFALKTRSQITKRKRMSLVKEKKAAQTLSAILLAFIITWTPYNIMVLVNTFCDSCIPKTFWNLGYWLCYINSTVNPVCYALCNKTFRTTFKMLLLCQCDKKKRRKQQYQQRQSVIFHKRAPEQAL

| Structure (SMILES) | inhibition [1] [%] | inhibition [2] [%] | IC50 [3] [µM] | inhibition [4] [%] | inhibition [5] [%] | inhibition [6] [%] | inhibition [7] [%] | inhibition [8] [%] | inhibition [9] [%] | IC50 [10] [µM] | IC50 [11] [µM] | IC50 [12] [µM] |
| --- | --- | --- | --- | --- | --- | --- | --- | --- | --- | --- | --- | --- |
| N#Cc1ccc(-c2cc(/C=C3/CN4CCC3CC4)on2)cc1 | 26 | 23 | 0.803 | 92 | 0 | 1 | 11 | 61 |  |  |  |  |
| N#Cc1ccc(-c2cc(/C=C3\CN4CCC3CC4)on2)cc1 | 31 | 32 | > 0.01 | 83 | 6 | 9 | 2 | 22 |  |  |  |  |
| Oc1ccc(-c2cc(/C=C3/CN4CCC3CC4)on2)cc1O | 39 | 43 |  |  | 12 | 5 | 13 | 59 | 95 | 0.486 |  |  |
| Oc1ccc(-c2cc(/C=C3\CN4CCC3CC4)on2)cc1O | 0 | 7 |  |  | 0 | 0 | 0 | 8 | 88 |  |  |  |
| Nc1ccc(-c2cc(/C=C3/CN4CCC3CC4)on2)cc1 | 19 | 30 |  |  | 5 | 1 | 33 | 86 | 94 | 0.709 |  |  |
| Oc1ccc(-c2cc(/C=C3/CN4CCC3CC4)on2)cc1 | 14 | 17 | 0.695 | 93 | 3 | 3 | 6 | 65 |  |  |  |  |
| Cc1cc(/C=C2\CN3CCC2CC3)on1 |  |  |  |  |  |  |  |  |  |  | 0.012 | ~10 |
